≈ marks a conversion by molar mass, not a printed value.
Key:
Staphylococcus aureus = assay: Antibacterial activity against wild type methicillin-sensitive Staphylococcus aureus ATCC 29213 assessed as reduction in bacterial growth by CLSI based broth microdilution method; assay type: functional
Streptococcus pneumoniae = assay: Antibacterial activity against Streptococcus pneumoniae ATCC 49619 assessed as reduction in bacterial growth by CLSI based broth microdilution method; assay type: functional
Escherichia coli = assay: Antibacterial activity against Escherichia coli ATCC 25922 assessed as reduction in bacterial growth by CLSI based broth microdilution method; assay type: functional
Haemophilus influenzae = assay: Antibacterial activity against Haemophilus influenzae ATCC 49247 assessed as reduction in bacterial growth by CLSI based broth microdilution method; assay type: functional
[1] = Thermodynamic solubility of the compound; assay type: physicochemical; conditions: read-out: Therm_solubility

Row | Structure (SMILES) | MIC (Staphylococcus aureus) [mg/L] | MIC (Streptococcus pneumoniae) [mg/L] | MIC (Escherichia coli) [mg/L] | MIC (Haemophilus influenzae) [mg/L] | solubility thermodynamic [1] [mg/mL]
1 | Cc1nc2c(=O)n(C3CC3)c3c(Cl)c(N4CC5CCCNC5C4)c(F)cc3c2o1 (stereo not drawn) | 2 (≈ 4.8 µM) | 4 (≈ 9.59 µM) | 2 (≈ 4.8 µM) | 8 (≈ 19.2 µM) | 1.06 (≈ 2550 µM)
2 | Cc1nc2c(=O)n(C3CC3)c3cc(N4CCC(O)C4)c(F)cc3c2o1 (stereo not drawn) | 32 (≈ 93.2 µM) | 64 (≈ 186 µM) | 64 (≈ 186 µM) | 4 (≈ 11.6 µM) | –
3 | Cc1nc2c(=O)n(C3CC3)c3c(Cl)c(N4CCC(CN(C)C)C4)c(F)cc3c2o1 (stereo not drawn) | 1 (≈ 2.39 µM) | 2 (≈ 4.77 µM) | 4 (≈ 9.55 µM) | 16 (≈ 38.2 µM) | 1.19 (≈ 2850 µM)

Results, then the compound that gave them:

Row | MIC (Staphylococcus aureus) [mg/L] | MIC (Streptococcus pneumoniae) [mg/L] | MIC (Escherichia coli) [mg/L] | MIC (Haemophilus influenzae) [mg/L] | solubility thermodynamic [1] [mg/mL] | Structure (SMILES)
4 | 2 (≈ 5.43 µM) | 4 (≈ 10.9 µM) | 4 (≈ 10.9 µM) | 2 (≈ 5.43 µM) | 1.2 (≈ 3240 µM) | Cc1nc2c(=O)n(C3CC3)c3cc(N4CC5CNCC5C4)c(F)cc3c2o1 (stereo not drawn)
5 | 2 (≈ 5.84 µM) | 8 (≈ 23.4 µM) | 1 (≈ 2.92 µM) | 1 (≈ 2.92 µM) | – | Cc1nc2c(=O)n(C3CC3)c3cc(N4CCC(N)C4)c(F)cc3c2o1 (stereo not drawn)

Reference: ChEMBL document CHEMBL4699433, “Rational design, synthesis and testing of novel tricyclic topoisomerase inhibitors for the treatment of bacterial infections part 2” (RSC Med Chem, 2020)
